Results published in patent US20240294478A1, “ANTI-CANCER COMPOUNDS AND METHODS OF USE” (YALE UNIVERSITY, priority 2021, published 2024).
Read-outs that look alike come from different tables or passages of the source.

Key:
Type in all cases: cell-based, human
LN229 MGMT−/MMR+ cells = test: Short-term cell viability assay, LN229 MGMT-/MMR+; conditions: for IC50: Homo sapiens, read-out: IC50 against LN229 cell lines, MGMT− MMR+; for MGMT− TI: Table III
Protocol: (§1) LN229 MGMT- and MGMT+ cell lines were a gift from B. Kaina (Johannes Gutenberg University Mainz, Mainz, Germany) and grown in Gibco® Duilbecco's Modified Eagle Medium with 10% fetal bovine serum (DMEM). For each compound tested, the relationship between MGMT status and MMR status and compound activity, in terms of IC50 values ([…]), was determined by the following method. On day 1, LN229 isogenic cells of varying MGMT and MMR status were seeded in 96 well format at a density of 2000 cells/well in 100 μL of DMEM media and allowed to adhere overnight. On day 2, a drug master plate was made with 100×the desired maximal concentration of test compound and serially diluted by 2 until 100×the minimal desired concentration, with one DMSO control. Then daughter plates were created with varied concentrations from 3-times the minimal concentration to 3-times the maximal desired concentration. Afterwards, 50 μL of daughter drug plate was added to 100 μL of the seeded cells for a final concentration of 1×in triplicate. Cells were allowed to grow for 6 days. On day 7, the cells were fixed, and stained with Hoechst nuclear dye and imaged to determine growth inhibition.
(§2) For each compound tested, the relationship between MGMT status and MMR status and compound activity, in terms of IC50 values (in μM), was determined. In addition, for each compound, the therapeutic index (TI) was calculated, according to the equation MGMT TI=IC50 (MGMT+/MMR+) divided by IC50 (MGMT−/MMR+). The T1 indicates the efficacy of a compound in treating the targeted MGMT-cancer cells as compared to potential for the same compound to damage, or have adverse effects against, normal cells which are MGMT+cells, The higher the value of the TI, the safer the compound is. […] MMR RI (resistance index)=IC50 (MGMT−/MMR−) divided by IC50 (MGMT−/MMR+). The higher the value of the RI, the less likely that resistance to the compound will develop.
(§3) Short-term Cell Viability Assay. Cells were seeded in 96-well plates at 1000 or 2000 cells/well and allowed to adhere at 23° C. for 60 min and then incubated overnight at 37° C. Cells were treated with indicated concentrations of compounds in triplicate for 4-6 days prior to fixation with 3.7% paraformaldehyde and nuclear staining with 1 μg/mL Hoechst 33342 dye. Cells were imaged on a Cytation 3 imaging reader (BioTek) and quantified using CellProfiler software. For in vitro short-term growth delay experiments, IC50 values were determined from the nonlinear regression equation, [inhibitor] vs normalized response with variable slope.

LN229 MGMT−/MMR− cells = test: Short-term cell viability assay, LN229 MGMT-/MMR- (shRNA targeting MSH2); conditions: for IC50: Homo sapiens, read-out: IC50 against LN229 cell lines, MGMT− MMR−; for activity in MGMT−/MMR− cells, in words: LN229 MGMT−/MMR−
Protocol: as §1
For each compound tested, the relationship between MGMT status and MMR status and compound activity, in terms of IC50 values (in μM), was determined. In addition, for each compound, the therapeutic index (TI) was calculated, according to the equation MGMT TI=IC50 (MGMT+/MMR+) divided by IC50 (MGMT−/MMR+). […] MMR RI (resistance index)=IC50 (MGMT−/MMR−) divided by IC50 (MGMT−/MMR+).
as §3, with “Cells were treated with indicated concentrations of compounds in triplicate for 4-6 days prior to fixation with 3.7% paraformaldehyde and nuclear staining with 1 μg/mL Hoechst 33342 dye.” left out

[1] = test system: four isogenic LN229 glioblastoma cell lines; test: Short-term cell viability assays, statements across the isogenic lines; conditions: regardless of MMR status
Protocol: as §1, §2, §3

[2] = test system: LN229 MGMT+/−, MMR+/− cells; test: Micronuclei analysis; conditions: 20 μM, 48 h
From the text: FIGS. 8A-8K. (FIG. 8A) Change in percent cells with 1 micronuclei from baseline (DMSO control) after treatment as in FIGS. 5A and 5C. Columns, mean; error bars, SD; n>15 technical replicates; **** p<0.0001; ns, not significant. (FIG. 8B) Short-term viability assay curves for KL-50 in PD20 cells, deficient in FANCD2 (FANCD2−/−) or complemented with FANCD2 (+FANCD2). (FIG. 8C) Short-term viability assay curves for KL-50 in PEO4 (BRCA2+) and PEO1 (BRCA2−/−) cells pre-treated with 0.01% DMSO control or 10 μM O^6BG (+O^6BG) for 1 h prior to KL-50 addition. (FIG. 8D) Short-term viability assay curves for KL-50 in DLD1 BRCA2+/− and BRCA2−/−cells pre-treated with 0.01% DMSO control or 10 μM O^6BG (+O^6BG) for 1 h prior to KL-50 addition. For FIGS. 8B-8D, points, mean; error bars, SD; n=3 technical replicates. […] (FIG. 8E) Validation of micronuclei identification using olaparib as positive control. […] The % FANCD2 ubiquitination (% FANCD2 Ub) is quantified as the background-corrected integrated band intensity of the upper band divided by the sum of the background-corrected integrated band intensities of the upper and lower bands. […]
Micronuclei Analysis. An automated image analysis pipeline was developed by YCMD using InCell Analyzer software to quantify micronuclei formation. […]

[3] = LN-229, 144 h, Table 1, 6 days growth

SMILES | IC50 (LN229 MGMT−/MMR+ cells; LN-229, Table III, shRNA None) | IC50 (LN229 MGMT−/MMR+ cells; LN-229, Table II) | TI / RI, in words (LN229 MGMT−/MMR+ cells; LN229 isogenic lines) | MGMT− TI (therapeutic index) (LN229 MGMT−/MMR+ cells; Table II, IC50 (MGMT+/MMR+) divided by IC50 (MGMT−/MMR+)) | MGMT− TI (LN229 MGMT−/MMR+ cells; shRNA None) | IC50 (LN229 MGMT−/MMR− cells; LN-229, Table II) | activity in MGMT−/MMR− cells, in words (LN229 MGMT−/MMR− cells) | MGMT− RI (resistance index) (LN229 MGMT−/MMR− cells; Table II, IC50 (MGMT−/MMR−) divided by IC50 (MGMT−/MMR+)) | activity in MGMT+ cells, in words [1] | micronuclei formation ([2]; greatest in MGMT−/MMR− cells) | IC50 (LN229 MGMT−/MMR+ cells; [3]) | IC50 (LN229 MGMT−/MMR− cells; [3]) | foci induction or micronuclei formation in MGMT−/MMR− cells [2]
NC(=O)c1ncn2c(=O)n(CCF)nnc12 [KL-50] | 13.2 ± 0.8 µM | 24.7 ± 4.1 µM | superior TI and RI | 24 | 22 | 22 ± 6.9 µM | exquisite sensitivity | 0.9 | limited activity | significant increase in micronuclei | – | – | –
Cn1nnc2c(C(N)=O)ncn2c1=O [TMZ, 4-methyl-5-oxo-2,3,4,6,8-pentazabicyclo[4.3.0]nona-2,7,9-triene-9-carboxamide, reference compound] | 5.1 ± 0.8 µM | 8.3 ± 3.5 µM | – | – | 137 | 838 ± 100 µM | essentially inactive | – | essentially inactive | – | 8.3 ± 3.5 µM | 838 ± 100 µM | not observed
